Test results taken from PMC3577359 (Biochemistry, 2013).
“And” between values parts separate entries of the source, which are not always exact repeats. Identical values can stand only once. Like-named read-outs stand apart in the source and are kept apart here.

Columns and labels:
[1] = target: AusA A2 domain (Staphylococcus aureus, UniProt A0A0H3JX00); test: ATP–PPi exchange kinetic parameters of AusA, A2 domain; assay type: biochemical
[2] = target: holo–AusA (Staphylococcus aureus, UniProt A0A0H3JX00); settings: for kcat/KM, fold lower than that of L-Tyr: fixed saturating L-Val, ATP, NADPH
[3] = target: AusA A1/A2 (Staphylococcus aureus, UniProt A0A0H3JX00); test: ATP–PPi exchange kinetic parameters of AusA, A1/A2 aggregate; assay type: biochemical
[4] = cited from earlier work
[5] = test system: calpain; settings: cited from earlier work
[6] = test system: holo–AusA reductase domain; assay type: biochemical, Staphylococcus aureus; settings: for NADPH Consumption kobs / Aureusimine-A Formation kobs: ATP; for Aureusimine-A Formation kobs: LC-MS
[7] = target: A2–T2–R (Staphylococcus aureus, UniProt A0A0H3JX00); test: ATP–PPi exchange assay, inhibition of A2–T2–R tridomain; assay type: biochemical
[8] = target: A1–T1 (Staphylococcus aureus, UniProt A0A0H3JX00); test: ATP–PPi exchange assay, inhibition of A1–T1 didomain; assay type: biochemical
[9] = target: AusA (A1–T1–C–A2–T2–R) (Staphylococcus aureus, UniProt A0A0H3JX00); assay type: biochemical
[10] = test system: N[C@@H](Cc1ccc(O)cc1)C(=O)O; test: ATP–PPi exchange kinetic parameters of AusA, A2 domain; assay type: biochemical, Staphylococcus aureus; settings: other: varied amino acid, non-varied ATP 3 mM; apparent; pH 8.0; 37.0 °C
[11] = test system: Nc1ncnc2c1ncn2[C@@H]1O[C@H](COP(=O)(O)OP(=O)(O)OP(=O)(O)O)[C@@H](O)[C@H]1O; test: as above; assay type: biochemical, Staphylococcus aureus; settings: other: varied ATP, non-varied L-Phe 30 mM; pH 8.0; 37.0 °C
[12] = test system: N[C@@H](Cc1ccccc1)C(=O)O; test: as above; assay type: biochemical, Staphylococcus aureus; settings: other: varied amino acid, non-varied ATP 3 mM; apparent; pH 8.0; 37.0 °C
[13] = test system: Nc1ccc(C[C@H](N)C(=O)O)cc1; test: as above; assay type: biochemical, Staphylococcus aureus; settings: other: varied amino acid, non-varied ATP 3 mM; apparent; pH 8.0; 37.0 °C
[14] = test system: Nc1ncnc2c1ncn2[C@@H]1O[C@H](COP(=O)(O)OP(=O)(O)OP(=O)(O)O)[C@@H](O)[C@H]1O; test: purified protein, by the assay type; settings: other: ATP varied, pH 8.0
[15] = target: AusA A1 domain (Staphylococcus aureus, UniProt A0A0H3JX00); test: ATP–PPi exchange kinetic parameters of AusA, A1 domain; assay type: biochemical
[16] = test system: CC(C)C[C@H](N)C(=O)O; test: ATP–PPi exchange kinetic parameters of AusA, A1/A2 aggregate; assay type: biochemical, Staphylococcus aureus; settings: other: non-varied ATP 3 mM; aggregate of A1 and A2; pH 8.0; 37.0 °C
[17] = test system: CC[C@H](C)[C@H](N)C(=O)O; test: ATP–PPi exchange kinetic parameters of AusA, A1 domain; assay type: biochemical, Staphylococcus aureus; settings: other: varied amino acid, non-varied ATP 3 mM; apparent; pH 8.0; 37.0 °C
[18] = test system: CC(C)[C@H](N)C(=O)O; test: as above; assay type: biochemical, Staphylococcus aureus; settings: other: varied amino acid, non-varied ATP 3 mM; apparent; pH 8.0; 37.0 °C
[19] = substrates L-Val, NADPH (no L-Tyr)

Nc1ccc(C[C@H](N)C(=O)O)cc1 [L-4Aph, L-4-aminophenylalanine]
decrease in kcat relative to L-Tyr [1]: 30%
increase in KM relative to L-Tyr [1]: 31 fold
kcat/KM, fold lower than that of L-Tyr [2]: 17 fold

CC(C)C[C@H](N)C(=O)O [L-Leu]
kcat/KM, fold less than the best substrates [3]: more than 200 fold
kcat/KM, fold lower than that of L-Tyr [2]: 302 fold

CC(C)c1ncc(Cc2ccccc2)[nH]c1=O [compound 2, aureusimine-B]
antibacterial activity [4]: no antibacterial activity was observed
calpain inhibition activity [5]: ~ 1 μM

NADPH
NADPH Consumption kobs [6, 19]: 0 min⁻¹
NADPH Consumption kobs ([6]; substrates L-Val, L-Tyr, NADPH, 80 nM holo–AusA, ambient temperature): 2.01 min⁻¹ and 2.01 ± 0.05 min⁻¹
kobs ([2]; at 0.1 mM NADPH, L-Val, L-Tyr, ATP non-varied): 0.39 min⁻¹

CC(C)c1ncc(Cc2ccc(O)cc2)[nH]c1=O [compound 1, aureusimine-A]
Aureusimine-A Formation kobs ([6]; substrates L-Tyr, NADPH (no L-Val)): 0 min⁻¹
Aureusimine-A Formation kobs [6, 19]: 0 min⁻¹
Aureusimine-A Formation kobs ([6]; substrates L-Val, L-Tyr, NADPH, listed as Aureusimine-A): 0.28 ± 0.01 min⁻¹
Aureusimine-A Formation kobs ([6]; substrates L-Val, L-Tyr, NADPH, listed as aureusimine-A): 0.28 min⁻¹

Nc1ncnc2c1ncn2[C@@H]1O[C@H](COS(=O)(=O)NC(=O)[C@@H](N)Cc2ccccc2)[C@@H](O)[C@H]1O [Phe-AMS, 5′-O-[N-(phenylalanyl)sulfamoyl]adenosine]
Ki [7]: < 0.004 µM
selectivity factor (A2 over A1–T1) [7]: > 10^4
consumption of NADPH with the A2-specific inhibitor added ([6]; L-Tyr reaction, data not shown): not observed
Ki [8]: > 100000 nM
inhibition of A1–T1 ([8]; up to 100 μM): little inhibition
Ki [9]: 0.8 ± 0.5 nM
effect on amino acid-dependent ATP–PPi exchange activity ([9]; 100 μM Phe-AMS, with L-Phe, L-4Aph, L-Tyr and L-Met): eliminates the enzymatic activity

NC(=O)C1=CN([C@@H]2O[C@H](COP(=O)(O)OP(=O)(O)OC[C@H]3O[C@@H](n4cnc5c(N)ncnc54)[C@H](O)[C@@H]3O)[C@@H](O)[C@H]2O)C=CC1 [NADH]
cofactor use by AusA ([6]; data not shown): unable to use

AusA A2 domain (Staphylococcus aureus subsp. aureus Mu50)
Km [10]: 1.0 ± 0 mM
kcat [10]: 2.15 ± 0.0167 s⁻¹
kcat/Km [10]: 2150 ± 17 M⁻¹ s⁻¹
Km [11]: 3.0 ± 0.5 mM
kcat [11]: 1.05 ± 0.117 s⁻¹
kcat/Km [11]: 350 ± 70 M⁻¹ s⁻¹
Km [12]: 2.1 ± 0.1 mM
kcat [12]: 0.675 ± 0.01 s⁻¹
kcat/Km [12]: 321 ± 16 M⁻¹ s⁻¹
Km [13]: 31 ± 1 mM
kcat [13]: 1.53 ± 0.0333 s⁻¹
kcat/Km [13]: 49 ± 2 M⁻¹ s⁻¹

holo–AusA (Staphylococcus aureus subsp. aureus Mu50)
Km ([14]; L-Leu as the non-varied amino acid): 9.7 mM
Km ([14]; L-Tyr as the non-varied amino acid): 0.1 mM

CC[C@H](C)[C@H](N)C(=O)O [L-Ile]
exchange rate, fold lower than with L-Val ([15]; in the presence of Phe-AMS): ~10 fold

CC(C)[C@H](N)C(=O)O [L-Val, L-Valine]
kcat/KM, fold greater than L-Ile [15]: 49 fold

AusA A1/A2 (Staphylococcus aureus subsp. aureus Mu50)
Km [16]: 24 ± 3 mM
kcat [16]: 0.248 ± 0.0167 s⁻¹
kcat/Km [16]: 10 M⁻¹ s⁻¹ and 10.3 M⁻¹ s⁻¹

CC(C)[C@H](N)C(=O)NS(=O)(=O)OC[C@H]1O[C@@H](n2cnc3c(N)ncnc32)[C@H](O)[C@@H]1O [Val-AMS, 5′-O-[N-(valinyl)sulfamoyl]adenosine]
Ki [7]: 10 µM
Ki [8]: 63 ± 5 nM
selectivity factor Ki(A2-T2-R)/Ki(A1-T1) [8]: 158
Ki [9]: 44 ± 7 nM
activity reduction relative to the uninhibited control ([9]; 100 μM Val-AMS, with L-Tyr, L-Phe, L-4Aph and L-Leu, off-target inhibition of A2): more than 2 fold
effect on amino acid-dependent ATP–PPi exchange activity ([9]; 100 μM Val-AMS, with L-Val, L-Ile, L-Cle, L-Ala, L-Cys, L-Tle and L-Met): eliminated

AusA A1 domain (Staphylococcus aureus subsp. aureus Mu50)
Km [17]: 11.9 ± 0.9 mM
kcat [17]: 0.565 ± 0.0183 s⁻¹
kcat/Km [17]: 47 ± 4 M⁻¹ s⁻¹
Km [18]: 3.3 ± 0.1 mM
kcat [18]: 7.683 ± 0.05 s⁻¹
kcat/Km [18]: 2330 ± 72 M⁻¹ s⁻¹

N[C@@H](Cc1ccccc1)C(=O)O [L-Phe]
kcat/KM, fold lower than that of L-Tyr [2]: 2.8 fold
